The text below walks through data of ChEMBL document CHEMBL1144292, “Estrogen receptor ligands. Part 11: Synthesis and activity of isochromans and isothiochromans” (Bioorg Med Chem Lett, 2005).

In assay [1] the target is T1, Estrogen receptor (Homo sapiens, UniProt P03372).
T1 sequence (P03372 whole entry): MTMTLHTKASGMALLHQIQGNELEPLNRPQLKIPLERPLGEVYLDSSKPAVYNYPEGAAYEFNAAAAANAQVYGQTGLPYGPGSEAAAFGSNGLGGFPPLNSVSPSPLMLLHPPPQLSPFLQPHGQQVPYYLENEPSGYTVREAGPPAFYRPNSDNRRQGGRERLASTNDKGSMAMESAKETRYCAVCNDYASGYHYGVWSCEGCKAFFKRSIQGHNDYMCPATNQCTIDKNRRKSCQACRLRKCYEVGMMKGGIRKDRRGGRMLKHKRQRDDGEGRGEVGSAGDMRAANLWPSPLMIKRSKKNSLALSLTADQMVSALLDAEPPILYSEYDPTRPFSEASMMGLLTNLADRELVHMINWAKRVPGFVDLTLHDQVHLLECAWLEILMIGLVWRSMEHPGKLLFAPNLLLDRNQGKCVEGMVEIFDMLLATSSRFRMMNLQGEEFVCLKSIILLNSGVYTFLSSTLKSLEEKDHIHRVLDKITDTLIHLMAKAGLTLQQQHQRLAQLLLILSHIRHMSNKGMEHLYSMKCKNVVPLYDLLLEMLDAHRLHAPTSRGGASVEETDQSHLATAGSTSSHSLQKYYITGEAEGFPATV
Description: Binding affinity for human estrogen receptor alpha

A further assay has as its target Estrogen receptor beta (Homo sapiens, UniProt Q92731).
Assay [2] has as its target Estrogen receptor (Homo sapiens, UniProt Q92731+P03372). The following applies: mcf-7.
Description: Inhibition of MCF-7 cell proliferation

Each structure is given as a SMILES string.

Sequence of Estrogen receptor beta (Q92731 whole entry): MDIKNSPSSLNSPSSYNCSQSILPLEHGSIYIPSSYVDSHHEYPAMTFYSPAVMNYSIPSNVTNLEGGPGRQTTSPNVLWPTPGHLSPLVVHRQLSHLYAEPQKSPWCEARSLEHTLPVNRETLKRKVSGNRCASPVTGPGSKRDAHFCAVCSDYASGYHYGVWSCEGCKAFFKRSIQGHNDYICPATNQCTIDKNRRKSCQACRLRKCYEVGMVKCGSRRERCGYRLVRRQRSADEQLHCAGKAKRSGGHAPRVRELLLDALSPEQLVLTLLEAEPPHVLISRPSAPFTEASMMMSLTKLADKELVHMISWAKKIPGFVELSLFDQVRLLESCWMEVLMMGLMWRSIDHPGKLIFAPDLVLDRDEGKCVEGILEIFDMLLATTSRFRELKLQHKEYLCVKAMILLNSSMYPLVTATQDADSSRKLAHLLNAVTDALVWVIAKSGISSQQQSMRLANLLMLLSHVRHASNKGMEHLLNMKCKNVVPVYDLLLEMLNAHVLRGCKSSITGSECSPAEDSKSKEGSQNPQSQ
Description for Estrogen receptor beta: Binding affinity for human estrogen receptor beta

Regarding `COc1ccc2c(c1)CO[C@H](c1ccccc1)[C@@H]2c1ccc(OCCN2CCCC2)cc1`, the IC50 at Estrogen receptor [1] is 39 nM; at Estrogen receptor beta, 315 nM; against Estrogen receptor [2] it was 57 nM.
Consider `COc1ccc2c(c1)CS[C@H](c1ccccc1)[C@@H]2c1ccc(OCCN2CCCC2)cc1`, for which the figures for the IC50 on Estrogen receptor [1], on Estrogen receptor beta and against Estrogen receptor [2] were 13 nM, 110 nM and 164 nM, respectively.
`Oc1ccc2c(c1)CO[C@H](c1ccccc1)[C@@H]2c1ccc(OCCN2CCCC2)cc1`: the IC50 against Estrogen receptor [1] is 2.4 nM; on Estrogen receptor beta, 3.6 nM; on Estrogen receptor [2], 0.15 nM.
On the same counts, the results for `Oc1ccc2c(c1)CS[C@H](c1ccccc1)[C@@H]2c1ccc(OCCN2CCCC2)cc1` are 0.6 nM, 2.1 nM and 0.25 nM.
